The text below walks through data of patent US8962528B2, “Penoxsulam as an herbicide in alfalfa” (Dow AgroSciences, LLC., priority 2011, dated 2015).

Data set [1] relates to alfalfa. As to conditions: in vivo. The protocol:
(§1) A field trial (California) was conducted in field-grown alfalfa using standard herbicide small plot research methodology. Plots were 7.5 ft by 20 ft long with 4 replicates per treatment. The alfalfa crop was already established the previous season and was grown using normal cultural practices for fertilization, seeding, watering, and maintenance to ensure good growth of the crop. All treatments in the field trials were applied using a CO2 backpack sprayer calibrated to apply 187 L/ha spray volume. Commercially available product of penoxsulam was mixed in water at appropriate formulated product rates to achieve the desired rates based on a unit area of application (hectare). Treatments were sprayed as a postemergence application to the soil when alfalfa was in the late dormant stage of growth. “Late dormant” growth stage is defined as when the crop is not actively growing during the winter season and just prior to emerging from dormancy and starting new growth for the growing season. Treatments were rated at 26 to 63 days after the application as compared to the untreated control plants, when the alfalfa crop was no longer dormant. Visual crop injury ratings were scored on a scale of 0 to 100 where 0 corresponds to no injury and 100 corresponds to complete control.

The subject of data set [2] is CAPBP = Capsella bursa-pastoris, Shepherd's purse. Description: Field trial of weed control in dormant alfalfa. As to conditions: for Control % Visual CAPBP: 45 DAAA, POST, NOV/JAN. It is filed as in vivo. The protocol: as §1
In data set [3] the test system is POAAN = Poa annua, annual bluegrass. Description: Field trial of weed control in dormant alfalfa. It is filed as in vivo. Conditions: for Control % Visual POAAN: 45 DAAA, POST, NOV/JAN. The protocol:
as §1

For data set [4], the system named is STEME = Stellaria media, chickweed. As to the kind of experiment: Field trial of weed control in dormant alfalfa. Format: in vivo. As to conditions: for Control % Visual STEME: 45 DAAA, POST, NOV/JAN. The protocol:
as §1

[5] abbreviates: 35 gr ai/ha + AGRI-DEX COC 2.33 liter/ha.
The mark [6] stands for this setting: 70 gr ai/ha + AGRI-DEX COC 2.33 liter/ha.
Setting [7] is: 140 gr ai/ha + AGRI-DEX COC 2.33 liter/ha.
Setting [8] is: 45DAAA, all rates, burndown and/or residual activity.

Each structure is given as a SMILES string.

Take `COc1cnc(OC)n2nc(NS(=O)(=O)c3c(OCC(F)F)cccc3C(F)(F)F)nc12` [PENOXSULAM]: the “% Visual Injury of alfalfa compared to the Untreated” value in data set [1] is listed as “some slight visual injury”. In data set [1], the “alfalfa growth (% Visual Regrowth) as compared to the Untreated” value is on record as “no effect”. Also, the “alfalfa regrowth as compared to the Untreated” value in data set [1] was “no significant difference”. Besides, the “Control % Visual CAPBP” value in data set [2] (setting [5]), in data set [2] (setting [6]) and in data set [2] (setting [7]) was 100 a % Visual each time. Also, in data set [2] (setting [8]), the “control of CAPBP (Sheperd's purse)” value worked out at 100%. Moreover, the “Control % Visual POAAN” value in data set [3] (setting [5]) came out at 65 b % Visual; in data set [3] (setting [6]) it was 79 ab % Visual; in data set [3] (setting [7]), 91 a % Visual. Also, the “control of grass weed POAAN (annual bluegrass)” value in data set [3] (45DAAA, dependent on the rate applied) is reported as “significant suppression/partial control”. In addition, the “Control % Visual STEME” value in data set [4] (setting [5]), in data set [4] (setting [6]) and in data set [4] (setting [7]) was 100 a % Visual in each case. Further, the “control of STEME (chickweed)” value in data set [4] (setting [8]) stood at 100%.
